Source: US20250120399A1, “METHODS AND COMPOSITIONS FOR ALTERING METABOLITES IN VITIS SPP. AND PREVENTING PESTS AND PATHOGENS” (Impello Biosciences, Inc., priority 2022, published 2025)
Several values for one entry are separate records, joined by “and”; a condition that tells them apart may be missing. Equal values may be shown once.

Legend:
[1] = system: Grapevine (Malbec variety); assay: Leaf sap Brix by refractometer, Malbec field trial (Example 1); assay type: in vivo, Vitis vinifera; set-up: % BRIX, Plant #1 / % BRIX, Plant #2 / % BRIX, Plant #3: reference not given here; settings: for AVG Brix, Plant #1 / AVG Brix, Plant #2 / AVG Brix, Plant #3: average of 25 leaves; for Brix, individual leaves, Plant #1 / Brix, individual leaves, Plant #2 / Brix, individual leaves, Plant #3: leaf sap; for Brix, individual leaves, Plant #1: MDJ treated Plant #1, leaf no. 1-25; for Brix, individual leaves, Plant #2: MDJ treated Plant #2, leaf no. 1-25; for Brix, individual leaves, Plant #3: MDJ treated Plant #3, leaf no. 1-25
Experimental: An eliciting composition and methods of use to alter metabolite production were tested on 6 acres of a Malbec variety planted in 1999 in Napa Valley, California. Plants were spaced 5′×10′ (900 vines per acre) and grouped into randomized blocks of 900 vines per group, with six replicates covering three acres for the treatment group, and six replicates covering three acres for the control group. The treatment group received two applications of 32 oz of MDJ applied at a rate of 100 gallons per acre (2.5 mM), once prior to veraison on Aug. 9, 2021 and again when 5-10% of berries were starting to blush (veraison) using a ground spray rig (backpack sprayer). From within each replicate, three plants were selected at random, and 25 leaves from each plant were randomly selected for analysis. The internal sap of the leaves was tested using a refractometer on the days shown below in Table 4 and FIG. 1. Data from each replicate was averaged (25 leaves from each plant, 3 plants).

[2] = system: powdery mildew (Erysiphe necator); assay: Powdery mildew on leaf and fruit under the microscope, 2021 field trial (Example 3); assay type: in vivo; settings: cabernet sauvignon; approx. 5 mM MDJ at 50 gal/acre, four applications
Experimental: MDJ was applied to fields of grape to investigate the efficacy of MDJ in preventing bunch rot on (Botrytis cinerea) and powdery mildew (Erysiphe necator) on grapes. […] (1 liter) per 50 gallons of water (approximately a 5 mM solution of MDJ). The composition was then applied (at a rate of 50 gallons per acre) to three acres (1245 vines/acre) of a cabernet sauvignon variety grown in Napa Valley, CA. There was a total of four applications between June and September using a ground spray rig. Several leaf and fruit samples were collected to access the presence of powdery mildew under the microscope and compared to leaf and fruit of plants treated with the grower standard.

[3] = system: Black seedless grapes (Vitis labrusca); assay: Red grape panel analysis (ETS Laboratories), black seedless grapes (Example 5); assay type: in vivo; settings: for Fruit catechin: ABCDE, Aug. 18, 2022
Experimental: Field trials were conducted in California 2022 (a dry year) to investigate the efficacy of MDJ in preventing Sour Rot caused by Aspergillus carbonarius (also known as summer bunch rot, abbreviated ASPECA in Table 7). Black seedless grapes (Vitis labrusca) were used in this trial. Four vines were used per plot. The plots were arranged in a randomized complete block design with six replicates (plots) per treatment. The plots were sprayed five times (ABCDE) at a rate of 500 gal/AC.
Treatments consisted of MDJ at 32 oz and 48 oz/A. A treatment of Regalia® at 1.5 qt/100 gal and Stargus® at 2 qt/100 gal was included for comparative purposes. Application D occurred at 5-10% veraison. Application E occurred at 40% veraison.
A randomly selected sample of approximately twenty wine grapes was used to evaluate the Brix and titratable acid. Another randomly selected sample (>500 g) was shipped to ETS Laboratories (Paso Robles, CA) for a red grape panel analysis (catechin, quercetin glycosides, tannin, polymeric anthocyanins, total anthocyanins, catechin/tannin index, and polymeric anthocyanins/tannin index). […] Total anthocyanins increased over 17% (449.1 in untreated controls compared to 529.3 in the group treated with 48 oz/A MDJ). An increase in quercetin glycosides, tannin, and polymeric anthocyanins, was also observed in MDJ treated plants (Table 8), as well as titratable acid (Table 9).

[4] = Replicate 5, Oct. 10, 2021, MDJ treated Plant #3
[5] = Replicate 6, Oct. 30, 2021, MDJ treated Plant #1
[6] = Replicate 6, Oct. 30, 2021, MDJ treated Plant #2
[7] = Replicate 6, Oct. 30, 2021, MDJ treated Plant #3
[8] = Replicate 4 sampled on Oct. 5, 2021
[9] = Replicate 5 sampled on Oct. 10, 2021
[10] = Replicate 6 sampled on Oct. 30, 2021
[11] = fruit, Aug. 18, 2022, 32 oz/a, applications ABCDE
[12] = fruit, Aug. 18, 2022, 48 oz/a, applications ABCDE

Compound: CCCCCC1C(=O)CCC1CC(=O)OC (stereo not shown) [MDJ, methyl dihydrojasmonate]
- % BRIX, Plant #3 [1, 4]: 107.3%
- % BRIX, Plant #1 [1, 5]: 99.2%
- % BRIX, Plant #2 [1, 6]: 110.1%
- % BRIX, Plant #3 [1, 7]: 103.2%
- AVG Brix, Plant #1 ([1]; Replicate 4, Oct. 5, 2021, MDJ treated Plant #1): 29.9
- AVG Brix, Plant #2 ([1]; Replicate 4, Oct. 5, 2021, MDJ treated Plant #2): 29.8
- AVG Brix, Plant #3 ([1]; Replicate 4, Oct. 5, 2021, MDJ treated Plant #3): 30.2
- AVG Brix, Plant #1 ([1]; Replicate 5, Oct. 10, 2021, MDJ treated Plant #1): 27.9
- AVG Brix, Plant #2 ([1]; Replicate 5, Oct. 10, 2021, MDJ treated Plant #2): 27.8
- AVG Brix, Plant #3 [1, 4]: 26.8
- AVG Brix, Plant #1 [1, 5]: 24.8
- AVG Brix, Plant #2 [1, 6]: 27.5
- AVG Brix, Plant #3 [1, 7]: 25.8
- Brix, individual leaves, Plant #1 ([1]; Replicate 4 sampled on Oct. 5, 2021, two applications of 32 oz MDJ at 100 gal/acre (2.5 mM)): 30.6 and 29.8 (2×) and 29.0 and 29.5 (6×) and 32.3 and 28.7 and 28.9 (3×) and 29.7 (2×) and 28.8 and 30.0 and 30.4 and 33.3 and 29.9 (2×) and 31.8 and 29.6
- Brix, individual leaves, Plant #2 [1, 8]: 29.3 (2×) and 28.0 and 26.9 and 28.5 and 29.9 (2×) and 29.8 (3×) and 30.1 and 28.9 (2×) and 29.4 and 28.3 and 33.3 and 33.0 and 32.9 and 32.5 and 28.8 and 30.4 and 29.5 (2×) and 29.6 and 28.7
- Brix, individual leaves, Plant #3 [1, 8]: 31.9 and 29.8 (2×) and 29.2 and 29.3 and 29.9 (4×) and 28.5 and 30.4 and 29.5 (2×) and 31.0 and 32.5 and 32.9 and 29.0 and 28.7 and 28.8 and 30.1 and 30.3 and 29.6 and 33.0 and 32.8 and 28.9
- Brix, individual leaves, Plant #1 [1, 9]: 28.7 and 26.1 and 26.2 and 27.2 and 27.7 and 27.6 (2×) and 26.4 (2×) and 28.2 and 28.8 (3×) and 25.8 and 28.5 and 26.0 and 26.9 and 29.5 (2×) and 27.4 and 32.0 and 23.8 and 29.9 and 30.5 and 28.0
- Brix, individual leaves, Plant #2 [1, 9]: 28.5 (2×) and 27.5 (2×) and 29.1 and 26.8 and 26.4 and 27.8 and 29.9 and 28.7 (2×) and 29.4 and 28.3 and 29.5 and 28.6 and 25.0 and 27.6 and 25.9 and 29.8 and 28.4 and 28.0 and 26.0 and 26.1 and 27.2 and 27.0
- Brix, individual leaves, Plant #3 [1, 9]: 26.8 (3×) and 24.5 and 26.3 (2×) and 25.5 (3×) and 25.3 and 28.5 (4×) and 26.7 and 25.8 and 27.0 and 28.7 and 26.9 and 29.8 and 27.5 (2×) and 26.0 and 26.5 and 24.8
- Brix, individual leaves, Plant #1 [1, 10]: 23.4 and 23.8 (2×) and 24.0 (4×) and 26.0 (2×) and 25.0 (3×) and 25.1 and 26.6 (2×) and 25.6 and 24.5 (2×) and 24.8 (2×) and 24.7 and 23.9 and 22.8 and 25.5 and 26.5
- Brix, individual leaves, Plant #2 [1, 10]: 28.7 (2×) and 24.5 and 24.1 and 26.0 (2×) and 28.0 (3×) and 27.1 and 26.4 and 29.1 and 25.5 and 28.5 (2×) and 26.9 and 29.8 (2×) and 29.9 and 27.3 (2×) and 24.9 and 26.6 and 29.5 and 29.0
- Brix, individual leaves, Plant #3 [1, 10]: 25.0 (2×) and 23.1 and 22.9 (2×) and 28.1 and 25.8 and 26.9 and 25.5 and 25.6 (2×) and 26.2 and 23.9 (2×) and 28.8 and 26.3 and 27.2 and 27.3 and 26.1 and 24.6 and 25.7 and 29.9 and 28.4 and 25.4 and 24.9
- Control of powdery mildew vs grower standard [2]: the same, or better, control of powdery mildew as the grower standard
- Fruit catechin ([3]; 32 oz/a): 0.8b mg/L
- Increase of total anthocyanins vs untreated controls ([3]; 48 oz/A MDJ): over 17%
- total anthocyanins ([3]; 48 oz/A MDJ): 529.3
- Fruit catechin ([3]; 48 oz/a): 2.6a mg/L
- Catechin vs untreated ([3]; MDJ treated plants): increase
- Polymeric anthocyanins vs untreated ([3]; MDJ treated plants): increase
- Quercetin glycosides vs untreated ([3]; MDJ treated plants): increase
- Tannin vs untreated ([3]; MDJ treated plants): increase
- catechin/tannin index [3, 11]: 0.0—
- polymeric anthocyanins [3, 11]: 13.5— mg/L
- polymeric anthocyanins/tannin index [3, 11]: 0.0312—
- quercetin glycosides [3, 11]: 89.8— mg/L
- tannin [3, 11]: 432.0— mg/L
- total anthocyanins [3, 11]: 388.3— mg/L
- catechin/tannin index [3, 12]: 0.0—
- polymeric anthocyanins [3, 12]: 14.7— mg/L
- polymeric anthocyanins/tannin index [3, 12]: 0.0304—
- quercetin glycosides [3, 12]: 113.2— mg/L
- tannin [3, 12]: 483.2— mg/L
- total anthocyanins [3, 12]: 529.3— mg/L
